The text below walks through data of article PMC4579270, “Identification and Characterization of an Irreversible Inhibitor of CDK2” (Chemistry & Biology, 2015).

Read-outs that look alike come from different tables or passages of the source.

Experiment [1] relates to phosphorylation of Rb at Thr821 in SKUT-1B cells. Kind of experiment: Inhibition of Rb phosphorylation in cells (western blot). The following applies: for inhibition at 50 µM: Homo sapiens, Skut1B, 1 hr exposure. In kind it is cell-based. On the procedure: The cellular potency of NU6300 was examined by measuring the inhibition of Rb phosphorylation following exposure of SKUT-1B cells to the inhibitor for 1 hr. Pre-incubation with 50 μM NU6300 inhibited phosphorylation of Rb at […], a known CDK2 phosphorylation site, by 43%. […] This difference just reached statistical significance (p = 0.04). […] Representative of three different experiments. […] Protein expression levels of phospho-Rb ([…]) were normalized to the levels of total Rb in respective samples using densitometry. Relative protein expression levels are presented as percentage of inhibition of phosphorylation of Rb ([…]) compared with the control cells for each time point. Error bars represent the mean value and SD from three independent experiments. Statistical analysis was performed using the unpaired Student's t test, one-tailed. Western blot analysis was carried out as described previously ([Thomas et al., 2011]) using rabbit anti-[…] phospho-Rb antibody (Invitrogen) or mouse antihuman Rb antibody (BD Pharmingen) to detect phosphorylated and total retinoblastoma protein, respectively. Sample preparation is described in Supplemental Experimental Procedures. page 14: formate) before cryo-coolling. Data processing was carried out using programs of the CCP4 suite (CCP4, 1994). The structure of NU6300 bound to CDK2/cyclin A was solved by molecular replacement using Phaser (McCoy et al., 2007), using as the search model a high-resolution structure of a recruitment peptide bound to CDK2/cyclin A ((Cheng et al., 2006) PDB code 2CCH). A single clear solution was found with an inhibitor bound to each of the two copies of the binary complex in the asymmetric unit. This solution was then subjected to rigid body refinement in REFMAC (Murshudov et al., 1997), to reveal unambiguous electron density in the CDK2 ATP-binding site, consistent with the expected shape of the inhibitor. A model of NU6300 was created using Coot (Emsley et al., 2010). The inhibitor atoms were kept in all subsequent models during refinement carried out by additional rounds of manual rebuilding in Coot and restrained refinement in REFMAC5, including TLS refinement. Towards the end of refinement, waters were added using the Coot water picking utility and manually verified. Western blotting SKUT-1B cells (ATCC, Manassas, USA) were grown in MEM medium supplemented with non-essential amino acids, L-Glutamine, sodium pyruvate and 10% (v/v) foetal calf serum (Sigma, UK). […] Cells were harvested at different time points after the washout and lysed by adding PhosphoSafe extraction reagent (Merck, UK) containing protease inhibitor cocktail (Roche, UK) at the manufacturer's recommended dilution. The harvested cell suspension was placed in an eppendorf tube on ice, centrifuged at 13,000x g for 5 min, and the supernatant (cell lysate) removed for analysis. Subsequent western blot analysis was carried out as described in (Thomas et al., 2011) using rabbit anti-[…] phospho-Rb antibody (Invitrogen, Paisley, UK Cat No. 44-[…]) or mouse anti-human Rb antibody (BD Pharmingen, Oxford, UK Cat No. 554136) to detect phosphorylated and total retinoblastoma protein, respectively.
In general terms: Immunoblotting shows a protein as a band on a membrane.

Experiment [2] has as its system human MCF-7 breast carcinoma cells. Further details: method as in Davies et al., 2002. The following applies: ref Davies et al., 2002; cited from earlier work.

For `NS(=O)(=O)c1ccc(Nc2nc(OCC3CCCCC3)c3nc[nH]c3n2)cc1` [NU6102, 4-((6-(Cyclohexylmethoxy)-9H-purin-2-yl)amino)benzenesulfonamide], the “inhibitory activity lost after washout” value in experiment [1] (50 μM, 1 hr of washout) is given as “just over half”. Also, the inhibition at 50 µM in experiment [1] (before washout, read-out: inhibition of phosphorylation of Rb at Thr821) was determined as 85%; in experiment [1] (then 1-hr washout in drug-free media, read-out: inhibition of phosphorylation of Rb at Thr821 after washout) it was 40%. For the same compound, the GI50 in experiment [2] is 8 µM.

What is called inhibition is the drop in the measured response relative to a control, in per cent. By GI50 is commonly meant the concentration that inhibits growth by half.
